# Species on record: Rattus norvegicus
# Assay: DrugMatrix - Regimen: Daily Repeat
# Type: toxicity, organism-based, Sprague-Dawley
# Design: regimen Daily Repeat, gender Male, age 6-8 weeks
# Settings: in vivo, po, route oral GAVAGE, vehicle .5 % CMC; for ABSOLUTE BASOPHIL / ABSOLUTE EOSINOPHIL / ABSOLUTE LYMPHOCYTE / ABSOLUTE MONOCYTE / ABSOLUTE SEGMENTED NEUTROPHIL / BASOPHIL / EOSINOPHIL / ERYTHROCYTE COUNT / HEMATOCRIT / HEMOGLOBIN / LEUKOCYTE COUNT / LYMPHOCYTE / MEAN CORPUSCULAR HEMOGLOBIN / MEAN CORPUSCULAR HEMOGLOBIN CONCENTRATION / MEAN CORPUSCULAR VOLUME / MONOCYTE / NEUTROPHIL / NUCLEATED RED BLOOD CELLS / PLATELET COUNT: tissue Blood; for ALANINE AMINOTRANSFERASE / ALBUMIN / ALKALINE PHOSPHATASE / ASPARTATE AMINOTRANSFERASE / BLOOD UREA NITROGEN / CARBON DIOXIDE / CHLORIDE / CHOLESTEROL / CREATINE PHOSPHOKINASE / CREATININE / GLUCOSE / LACTATE DEHYDROGENASE / LIPASE / PHOSPHORUS / POTASSIUM / SODIUM / TOTAL BILIRUBIN / TOTAL PROTEIN / URIC ACID: tissue Plasma
# [1] = 15 mg/kg, 120 h, dose level Low, time 5 day
# [2] = 710 mg/kg, 72 h, dose level High, time 3 day
# [3] = 710 mg/kg, 120 h, dose level High, time 5 day
smiles,measurement,setting,value
CN1C(=O)CN=C(c2ccccc2)c2cc(Cl)ccc21 [DIAZEPAM],ABSOLUTE BASOPHIL,[1],0 CELLS/uL
same,ABSOLUTE EOSINOPHIL,[1],72 CELLS/uL
same,ABSOLUTE LYMPHOCYTE,[1],10533.67 CELLS/uL
same,ABSOLUTE MONOCYTE,[1],40.33 CELLS/uL
same,ABSOLUTE SEGMENTED NEUTROPHIL,[1],587.33 CELLS/uL
same,BASOPHIL,[1],0%
same,EOSINOPHIL,[1],0.67%
same,ERYTHROCYTE COUNT,[1],5.7 x10E6/uL
same,HEMATOCRIT,[1],36.2%
same,HEMOGLOBIN,[1],14.23 G/DL
same,LEUKOCYTE COUNT,[1],11.23 x10E3/uL
same,LYMPHOCYTE,[1],93.67%
same,MEAN CORPUSCULAR HEMOGLOBIN,[1],25.07 pg
same,MEAN CORPUSCULAR HEMOGLOBIN CONCENTRATION,[1],39.37 G/DL
same,MEAN CORPUSCULAR VOLUME,[1],63.67 fL
same,MONOCYTE,[1],0.33%
same,NEUTROPHIL,[1],5.33%
same,NUCLEATED RED BLOOD CELLS,[1],0 /100WBC
same,PLATELET COUNT,[1],1134.33 x10E3/uL
same,ALANINE AMINOTRANSFERASE,[1],51.33 u/L
same,ALBUMIN,[1],4.17 G/DL
same,ALKALINE PHOSPHATASE,[1],404.33 u/L
same,ASPARTATE AMINOTRANSFERASE,[1],80.33 u/L
same,BLOOD UREA NITROGEN,[1],16.33 mg/dL
same,CARBON DIOXIDE,[1],27.67 mmol/L
same,CHLORIDE,[1],101.67 MEQ/L
same,CHOLESTEROL,[1],58.67 mg/dL
same,CREATINE PHOSPHOKINASE,[1],231 u/L
same,CREATININE,[1],0.18 mg/dL
same,GLUCOSE,[1],147.67 mg/dL
same,LACTATE DEHYDROGENASE,[1],117.67 u/L
same,LIPASE,[1],9 u/L
same,PHOSPHORUS,[1],12.13 mg/dL
same,POTASSIUM,[1],7.09 MEQ/L
same,SODIUM,[1],143.97 MEQ/L
same,TOTAL BILIRUBIN,[1],0.23 mg/dL
same,TOTAL PROTEIN,[1],5.93 G/DL
same,URIC ACID,[1],1.43 mg/dL
same,ABSOLUTE BASOPHIL,[2],0 CELLS/uL
same,ABSOLUTE EOSINOPHIL,[2],125.67 CELLS/uL
same,ABSOLUTE LYMPHOCYTE,[2],9703.33 CELLS/uL
same,ABSOLUTE MONOCYTE,[2],42.33 CELLS/uL
same,ABSOLUTE SEGMENTED NEUTROPHIL,[2],1128.67 CELLS/uL
same,BASOPHIL,[2],0%
same,EOSINOPHIL,[2],1%
same,ERYTHROCYTE COUNT,[2],5.78 x10E6/uL
same,HEMATOCRIT,[2],35.37%
same,HEMOGLOBIN,[2],13.83 G/DL
same,LEUKOCYTE COUNT,[2],11 x10E3/uL
same,LYMPHOCYTE,[2],88.33%
same,MEAN CORPUSCULAR HEMOGLOBIN,[2],23.93 pg
same,MEAN CORPUSCULAR HEMOGLOBIN CONCENTRATION,[2],39.1 G/DL
same,MEAN CORPUSCULAR VOLUME,[2],61.17 fL
same,MONOCYTE,[2],0.33%
same,NEUTROPHIL,[2],10.33%
same,NUCLEATED RED BLOOD CELLS,[2],0 /100WBC
same,PLATELET COUNT,[2],1330.67 x10E3/uL
same,ALANINE AMINOTRANSFERASE,[2],69.67 u/L
same,ALBUMIN,[2],4.07 G/DL
same,ALKALINE PHOSPHATASE,[2],240 u/L
same,ASPARTATE AMINOTRANSFERASE,[2],86.67 u/L
same,BLOOD UREA NITROGEN,[2],14 mg/dL
same,CARBON DIOXIDE,[2],33.33 mmol/L
same,CHLORIDE,[2],101.33 MEQ/L
same,CHOLESTEROL,[2],106.33 mg/dL
same,CREATINE PHOSPHOKINASE,[2],222 u/L
same,CREATININE,[2],0.21 mg/dL
same,GLUCOSE,[2],159 mg/dL
same,LACTATE DEHYDROGENASE,[2],204.67 u/L
same,LIPASE,[2],10.67 u/L
same,PHOSPHORUS,[2],12.7 mg/dL
same,POTASSIUM,[2],6.45 MEQ/L
same,SODIUM,[2],143.1 MEQ/L
same,TOTAL BILIRUBIN,[2],0.2 mg/dL
same,TOTAL PROTEIN,[2],5.53 G/DL
same,URIC ACID,[2],1.27 mg/dL
same,ABSOLUTE BASOPHIL,[3],0 CELLS/uL
same,ABSOLUTE EOSINOPHIL,[3],31.67 CELLS/uL
same,ABSOLUTE LYMPHOCYTE,[3],10193.33 CELLS/uL
same,ABSOLUTE MONOCYTE,[3],269 CELLS/uL
same,ABSOLUTE SEGMENTED NEUTROPHIL,[3],1672.67 CELLS/uL
same,BASOPHIL,[3],0%
same,EOSINOPHIL,[3],0.33%
same,ERYTHROCYTE COUNT,[3],5.59 x10E6/uL
same,HEMATOCRIT,[3],34.87%
same,HEMOGLOBIN,[3],13.8 G/DL
same,LEUKOCYTE COUNT,[3],12.17 x10E3/uL
same,LYMPHOCYTE,[3],84%
same,MEAN CORPUSCULAR HEMOGLOBIN,[3],24.77 pg
same,MEAN CORPUSCULAR HEMOGLOBIN CONCENTRATION,[3],39.6 G/DL
same,MEAN CORPUSCULAR VOLUME,[3],62.47 fL
same,MONOCYTE,[3],2.33%
same,NEUTROPHIL,[3],13.33%
same,NUCLEATED RED BLOOD CELLS,[3],0 /100WBC
same,PLATELET COUNT,[3],1299.67 x10E3/uL
same,ALANINE AMINOTRANSFERASE,[3],81.67 u/L
same,ALBUMIN,[3],3.93 G/DL
same,ALKALINE PHOSPHATASE,[3],319.33 u/L
same,ASPARTATE AMINOTRANSFERASE,[3],104.67 u/L
same,BLOOD UREA NITROGEN,[3],13.67 mg/dL
same,CARBON DIOXIDE,[3],25.33 mmol/L
same,CHLORIDE,[3],101 MEQ/L
same,CHOLESTEROL,[3],119.67 mg/dL
same,CREATINE PHOSPHOKINASE,[3],535.33 u/L
same,CREATININE,[3],0.16 mg/dL
same,GLUCOSE,[3],133.33 mg/dL
same,LACTATE DEHYDROGENASE,[3],507 u/L
same,LIPASE,[3],11.33 u/L
same,PHOSPHORUS,[3],11.5 mg/dL
same,POTASSIUM,[3],5.38 MEQ/L
same,SODIUM,[3],142.53 MEQ/L
same,TOTAL BILIRUBIN,[3],0.13 mg/dL
same,TOTAL PROTEIN,[3],5.7 G/DL
same,URIC ACID,[3],1.23 mg/dL

# Reference: ChEMBL document CHEMBL3885881, “DrugMatrix”
